Experimental data taken from the NIST ThermoML archive (doi:10.1021/je700271n).
Numbers after ± are expanded uncertainties.

Settings: Liquid

Compound	vapor or sublimation pressure (273.15 K)	vapor or sublimation pressure (283.15 K)	vapor or sublimation pressure (293.15 K)	vapor or sublimation pressure (303.15 K)	vapor or sublimation pressure (313.15 K)	vapor or sublimation pressure (323.15 K)
FC(C(F)(F)F)C(F)(F)F [1,1,1,2,3,3,3-heptafluoropropane]	195 ± 3 kPa	280 ± 4 kPa	389 ± 5 kPa	527 ± 7 kPa	704 ± 9 kPa	920 ± 11 kPa
CCC [propane]	476 ± 6 kPa	632 ± 8 kPa	833 ± 10 kPa	1079 ± 13 kPa	1366 ± 17 kPa	1709 ± 21 kPa
